Source: publication PMC9098178, “SAR of Novel 3-Arylisoquinolinones: meta-Substitution on the Aryl Ring Dramatically Enhances Antiproliferative Activity through Binding to Microtubules” (Journal of Medicinal Chemistry, 2022)
Where two headings read alike, the source gives them in different places.

Legend:
[1] = tested on: HUVECs; test: Endothelial tube disruption assay; type: cell-based, human; conditions: 16 h treatment after 4 h tube formation; concentration-dependent, more pronounced at 1 and 2 μM of 4
Description: (§1) Moreover, networks of HUVEC-based tubes were exposed for 16 h to different concentrations of 4 and 5 to assess their potential tube disruptive effects (Figure 8B). […] The disruption was more pronounced at 1 and 2 μM of 4, as evidenced by a decrease in tube junctions and formation of short distorted tubes.
(§2) Matrigel (Corning, Cat# 356237) was gently added into 96-well plates at a volume of 70 μL/well and allowed to gel at 37 °C for 30 min. A mixture of HUVECs (25 × 10^3) and DMSO, 4 (0.5, 1, 2 μM), or 5 (25 μM) was then dispensed over the gels and incubated for 16 h. Next, the wells were filled with PBS and covered with a coverslip to diminish the meniscus effect, allowing proper examination of the endothelial tube networks under a light microscope (Optika XDS-3, Italy). Bright-field images of 4x magnification were captured and then processed using Fiji ImageJ software. For the assessment of endothelial tube disruption, HUVECs at a density of 25 × 10^3 cells/well were seeded onto Matrigel and incubated for 4 h to align into tubes. The cells were then treated with DMSO, 4, or 5 for 16 h prior to the microscopic examination as mentioned above.

[2] = tested on: SNU423; test: SRB antiproliferative assay, SNU423; type: cell-based, human; conditions: Homo sapiens
Description: (§3) In light of this substantial change in activity between the meta and para compounds, a more comprehensive analysis of the antiproliferative activity was performed for the meta-/para-3-arylisoquinolinone pairs 2 and 3, 4, and 5, as well as 6. A panel of breast (MDA-MB-231), liver (HepG2, SNU423), lung (A549), and colon (HCT116) cancer cell lines were treated with the five 3-arylisoquinolinone analogs for 96 h followed by the SRB assay. The dose–response curves (including those for MCF-7) are presented in Figure S22, and their relevant IC50 values are listed in Table 1. […] The differential activity between meta- and para-3-arylisoquinolinones was reproduced in the National Cancer Institute (NCI) one-dose screen using a panel of 59 cancer cell lines (Figure S23).
All cell lines used in the study were human-derived and purchased from ATCC (Manassas, USA). Breast adenocarcinoma MCF-7 and MDA-MB-231 cell lines were cultured in DMEM. Hepatocellular carcinoma HepG2 and SNU423 cell lines were grown in MEME combined with 1% (v/v) nonessential amino acids and RPMI supplemented with 2 mM glutamine, respectively. Lung adenocarcinoma A549 and colorectal carcinoma HCT116 cells were grown in RPMI (+2 mM glutamine). All previous media were further supplemented with 10% heat-inactivated fetal bovine serum. The immortalized, normal liver THLE-3 cells were grown in BEGM (Lonza, Cat# CC-3170) onto precoated vessels according to ATCC’s instructions. Human umbilical vein endothelial cells (HUVECs) were cultured in EGM-2 (Lonza, Cat# CC-3162). All of the cells were maintained at 37 °C and 5% CO2 in a humidified incubator.
Screening of the antiproliferative activity of 3-arylisoquinolinones was performed using the SRB assay as previously described.[56] Exponentially growing HepG2, SNU423, MDA-MB-231, MCF-7, A549, HCT116, THLE-3, and HUVECs were seeded in 96-well plates at densities of 3000, 2000, 1500, 2500, 1000, 1000, 4000, and 4000 cells/well, respectively. These densities were experimentally selected so that the DMSO-treated cells (control) were approximately 80–90% confluent at the assay’s endpoint, and their optical density (OD) values fell within the assay’s linear range. […] After treatment, cell monolayers were fixed with 10% (w/v) trichloroacetic acid for 1 h at 4 °C, washed, and dried. Then, the cells were exposed to 0.4% (w/v) SRB dye (prepared in 1% (v/v) acetic acid; Botium, Cat# 80100) for 15 min followed by several 1% acetic acid washing and then drying. Finally, the cellular protein-bound SRB was thoroughly dissolved in 10 mM Tris base, and the OD values were read at 510 nm using a plate reader (μQuant Microplate Spectrophotometer, Biotek, U.K.) coupled with Gen5 software (BioTek, U.K.). Compound-induced changes in cell growth were inferred from changes in OD values. Cell growth was calculated using the following formula: cell growth (%) = (ODtest/ODcontrol) × 100.

[3] = tested on: panel of 59 cancer cell lines; test: NCI one-dose screen; type: cell-based; conditions: 10 µM, 48 h, SRB
Description: as §3
Figure S23. NCI One-Dose Mean graphs for 3-arylisoquinolinones 4, 5 […]
In NCI one-dose screen, the 59 cell lines (classified into 9 groups) were exposed to 4, 5 and 7 at a single dose of 10 µM for 48 h followed by SRB assay. The one-dose data were reported as a mean graph of the growth percentage of treated cells, as relative to the cell number of both the no-drug control and the zero time (before adding the test agent). Values between 0 and 100 indicate growth inhibition, whereas values less than 0 indicate lethality. For instance, a value of 40 means 60% growth inhibition; 0, no growth throughout the experiment; -40, 40% lethality; and - 100, all cells are dead.1
A) One-dose mean graph for 3-arylisoquinolinone 4 (NSC number 795055)

[4] = tested on: HUVECs; test: Endothelial cell tube formation assay; type: cell-based, human; conditions: 16 h, Matrigel
Description: as §1, §2

[5] = tested on: HepG2 cells; test: Clonogenic assay; type: cell-based, human; conditions: 14 days
Description: HepG2 cells were treated with varying concentrations of 2–6 added once and kept for 14 days before counting colonies and calculating surviving fraction (Figure 2).
The ability of potential anticancer agents to prevent unlimited cell division and induce reproductive cell death was assessed using clonogenic assay as previously described.[57] In brief, HepG2 cells were seeded into six-well plates at a density of 1000 single cells/well and incubated for 10–12 h to adhere. The cells were then treated with DMSO (control) or a range of concentrations of 2–6 for 14 days. Afterward, the produced colonies were washed with phosphate-buffered saline (PBS), fixed with 70% ethanol for 20 min, and stained with 0.5% (w/v) methylene blue (prepared in 70% methanol). Following washing with water and drying, colonies (≥50 cells) were manually counted. The colony-forming efficiency (CFE) of cells was calculated by dividing the number of colonies formed by the number of cells seeded for each condition. The surviving fraction was determined by dividing the CFE of the treated cells by CFE of the control cells. A survival curve was generated by plotting the log of drug concentrations versus surviving fraction.

[6] = SNU-423, 96 h treatment, mean ± SEM, read-out: IC50 SNU423

SMILES	disruption of preestablished capillary-like tubes [1]	IC50 [2, 6]	inhibition of growth in NCI one-dose screen [3]	effect on capillary-like tube formation ([4]; 25 μM)	surviving fraction ([5]; concentrations as high as 20 μM)	IC50 ([2]; SNU-423, 24 h +drug/72 h –drug treatment, read-out: mean IC50 ± SEM, SNU423)	effect on capillary-like tube formation ([4]; 2 μM)	colony formation ([5]; 0.5 or 1 μM)
O=c1[nH]c(-c2ccc(F)cc2)cc2cc(F)ccc12 [compound 5, 6-Fluoro-3-(4-fluorophenyl)isoquinolin-1(2H)-one]	not observed	> 50 µM	less active	did not significantly affect the process of tube formation	0.5	–	–	–
O=c1[nH]c(-c2cccc(F)c2)cc2cc(F)ccc12 [compound 4, 6-Fluoro-3-(3-fluorophenyl)isoquinolin-1(2H)-one]	able to disrupt the preestablished capillary-like tubes	0.25 ± 0.03 µM	far more potent in the inhibition of growth of many of the cell lines	–	–	0.36 ± 0.01 µM	markedly suppressed tube formation	No colonies were apparent
